The text below walks through data of patent US7345065B2, “Methods and compositions for alleviating pain” (Allergan, Inc., priority 2002, dated 2008).

In data set [1] the test system is sulprostone-sensitized wild type mice. As to the kind of experiment: Sulprostone sensitized pain (allodynia), wild type mice. Particulars: intraperitoneal, wild type mice; clonidine 500 ug/kg, Compound 3 100 ug/kg. Type of data set: in vivo, mouse. Here is the method:
Non-specific α-adrenergic agonists were assayed in α-2A receptor deficient (“knockout”) mice (Hein et al., supra, 1999) using a mouse model of sulprostone sensitized pain in which allodynia is evoked by intrathecal administration of a selective prostaglandin E2 receptor agonist to conscious mice essentially as described in Minami et al., Pain 57:217-223 (1994). In this model, the pain response to stroking the flank with a paint brush is scored eight times over a 35 minute period starting 15 minutes following spinal administration of sulprostone and intrathecal or intraperitoneal administration of drug or control vehicle. Sulprostone elicits a “pain” score of 12-13 on a 16-point scale.
Assays for allodynia in wild type and α-2A knockout mice were performed essentially according to the method of Yaksh and Harty, J. Pharmacology Exp. Ther. 244: 501-507 (1998). In brief, mice were divided into groups of 5-6 animals. Control mice were administered 5 ul DMSO while treated animals were injected with 5 ul DMSO containing various doses of the indicated agent. After intrathecal injection, each mouse was placed in an individual 13×8.5×13 cm Plexiglass enclosure with wood chips on the floor for observation. Allodynia was assessed once every five minutes over a 50 minute time period, with response recorded eight times in the 15 to 50 minute time frame. Allodynia was assessed by light stroking of the flank of the mice with a small paintbrush and ranked as follows: 0, no response; 1, mild squeaking with attempts to move away from the stroking probe; and 2, vigorous squeaking evoked by the stroking probe, biting at the probe and strong efforts to escape. The eight scores for each animal were added together, and the mean for the group determined to give an average total score.

Data set [2] deals with α-2B heterozygous (−/+) and homozygous (−/−) knockout mice. Put plainly: Sulprostone sensitized pain (allodynia), α-2B knockout mice. Format: in vivo, mouse. The settings on record: intraperitoneal; heterozygous and homozygous α-2B knockout; clonidine 500 ug/kg, Compound 3 100 ug/kg.
Data set [3] has as its system mice. As to the kind of experiment: Sedative effects in mice (exploratory activity, digicom analyzer chamber). Type of data set: in vivo, mouse. Particulars: intraperitoneal, wild type mice; clonidine 500 ug/kg, Compound 3 100 ug/kg. As to the method:
(§1) Sedative effects were analyzed by assessing exploratory behavior in a darkened chamber as follows. Mice were weighed, and test compound administered by intrathecal injection in a volume of 5 μl or by intraperitoneal injection in 1 ml/kg volume at the indicated dose. At predetermined time points corresponding with analgesia measurements 5 to 30 minutes following the injection, the animal's activity was determined automatically by placing the mouse in a digicom analyzer chamber (Omnitech Electronic; Columbus, Ohio). The digicom analyzer chamber contains photocell beams criss-crossing the box that are broken as the animal moves around; the chamber was modified for mice by raising the level of the floor. Computer analysis of total animal movement proceeded over a 5-minute time period. Any given animal was used at most twice for this protocol, as learned behavior can affect the data. All animals received at least two weeks rest between studies.

Data set [4] concerns Male Sprague-Dawley rats. As to the kind of experiment: Sedative effects in rats (total activity, digicom analyzer chamber). Type of data set: in vivo, rat. The settings on record: single intraperitoneal dose 1 to 1000 μg/kg. As to the method:
as §1
Male Sprague-Dawley rats that were not subject to surgery were used for assessment of sedative effects. Rats were weighed and compound administered by intravenous or intraperitoneal injection or given orally at the indicated dose. At a predetermined time point 5 to 30 minutes following injection, the animal's activity was determined automatically by placing the rat in a digicom analyzer chamber (Omnitech Electronic). Total activity was analyzed as described above.

Consider `O=C1c2ccccc2CCC1Cc1c[nH]c(=S)[nH]1` (racemic) [Compound 3], for which the sulprostone-induced tactile allodynia result in data set [1] was “alleviated sulprostone-induced tactile allodynia”. In data set [2], the “analgesic effect in α-2B knockout mice” value is on record as “not analgesic”. Moreover, in data set [3], the concomitant sedation entry is reported as “without concomitant sedation”. Besides, the “non-sedating dose relative to doses producing a robust reversal of allodynia” value in data set [4] is more than 100 fold.
